These molecules were tested against hMAT2A (Homo sapiens (Human), UniProt P31153) (assay: Phosphate Sensor Fluorescence Assay (MAT2A enzyme inhibition)). Details: L-methionine 500 uM, ATP 500 uM, class symbols.
Assay type: biochemical
Procedure: The ability of the compound of present disclosure to inhibit MAT2A enzyme was determined using the Malachite Green or Phosphate Sensor Fluorescence Assay described below.
B. Phosphate Sensor Fluorescence Assay
MAT2A enzyme is incubated with a test compound in DMSO or DMSO and its substrates (L-methionine and ATP) in a microtiter plate. The enzymatic reaction is stopped by the addition of Working Phosphate Sensor Mixture. The plate is analyzed for fluorescence at 450 nm.
Assay Buffer: 50 mM Tris, pH 7.5/50 mM KCl/10 mM MgCl2/0.01% Brij-35/1 mM DTT/0.1% BGG/40 nM PNP/6 uM 7-MEG
L-methionine: 500 uM before the addition of Working Phosphate Sensor Mixture
ATP: 500 uM before the addition of Working Phosphate Sensor Mixture
Test compounds or DMSO were added to the appropriate well suing D300e digital dispenser. 5 μl/well of Assay Buffer was added to the wells corresponding to the negative control and 5 μl/well of MAT2A was added to all the wells except for those corresponding to the negative control. After incubating the plate at room temperature for 15 minutes, 5 μl/well of the 1 mM L-methionine/1 mM ATP mixture was added to all wells. The plate was centrifuged at 1000 rpm for 1 minute and then incubated at room temperature for 1 hour. 5 μl of the Working Phosphate Sensor Mixture was added to all wells and the plate was centrifuged at 1000 rpm for 1 minute. The plate was read for fluorescence at 450 nm after exciting at 430 nm.
Percent inhibition was calculated in Chemical and Biological Information System (CBIS), (ChemInnovation Software Inc.). Curves were fitted by CBIS as % inhibition vs. log [compound concentration] using a 4-parameter inhibition model. Fit=(A+((B−A)/(1+((C/x)^D)))) Res=(y−fit)

Chain of hMAT2A (P31153 whole entry): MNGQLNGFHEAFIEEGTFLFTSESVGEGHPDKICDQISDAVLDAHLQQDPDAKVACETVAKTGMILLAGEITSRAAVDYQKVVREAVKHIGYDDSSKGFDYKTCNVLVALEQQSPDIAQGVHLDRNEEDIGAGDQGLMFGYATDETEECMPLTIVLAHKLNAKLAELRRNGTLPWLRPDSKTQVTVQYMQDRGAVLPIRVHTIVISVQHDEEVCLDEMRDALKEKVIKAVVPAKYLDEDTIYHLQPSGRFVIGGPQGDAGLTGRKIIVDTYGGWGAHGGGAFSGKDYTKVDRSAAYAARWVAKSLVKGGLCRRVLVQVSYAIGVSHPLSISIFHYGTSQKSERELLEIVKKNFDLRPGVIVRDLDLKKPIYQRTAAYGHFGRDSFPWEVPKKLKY

IC50 | SMILES
< 200 nM | CNc1nc(=O)n(-c2cccc(C(=O)O)c2)c2cc(Cl)ccc12 [Example 133, 3-[7-chloro-4-(methylamino)-2-oxo-hydroquinazolin-1-yl]benzoic acid]
< 200 nM | CNc1nc(=O)n(-c2cccc(C(N)=O)c2)c2cc(Cl)ccc12 [Example 134, 3-[7-chloro-4-(methylamino)-2-oxo-hydroquinazolin-1-yl]benzamide]
< 200 nM | O=c1nc(NCC(F)(F)F)c2ccc(C(F)(F)F)nc2n1-c1ccccc1 [Example 136, 1-phenyl-4-((2,2,2-trifluoroethyl)amino)-7-(trifluoromethyl)pyrido[2,3-d]-pyrimidin-2(1H)-one]
< 200 nM | O=c1nc(NCC(F)F)c2ccc(C(F)(F)F)nc2n1-c1ccccc1 [Example 137, 4-((2,2-difluoroethyl)amino)-1-phenyl-7-(trifluoromethyl)pyrido[2,3-d]pyrimidin-2(1H)-one]
< 200 nM | Nc1nc(=O)n(-c2ccccc2)c2nc(C(F)(F)F)ccc12 [Example 138, 4-amino-1-phenyl-7-(trifluoromethyl)-hydropyridino[2,3-d]pyrimidin-2-one]
< 200 nM | N#Cc1cccc(-n2c(=O)nc(N3CC(O)C3)c3ccc(C(F)(F)F)cc32)c1 [Example 139, 3-[4-(3-hydroxyazetidinyl)-2-oxo-7-(trifluoromethyl)hydroquinazolinyl]-benzenecarbonitrile]
< 200 nM | N#Cc1cccc(-n2c(=O)nc(N)c3ccc(C(F)(F)F)cc32)c1 [Example 140, 3-[4-amino-2-oxo-7-(trifluoromethyl)-hydroquinazolinyl]benzenecarbonitrile]
< 200 nM | N#Cc1cccc(-n2c(=O)nc(N3CC[C@@H](O)C3)c3ccc(C(F)(F)F)cc32)c1 [Example 141]
< 200 nM | CNc1nc(=O)n(-c2cccc(C#N)c2)c2cc(C(F)(F)F)ccc12 [Example 142, 3[4-(methylamino)-2-oxo-7-(trifluoro-methyl)hydroquinazolinyl]benzene-carbonitrile]
< 200 nM | CNc1nc(=O)n(-c2ccccc2)c2cc(C(F)F)ccc12 [Example 143, 7-(difluoromethyl)-4-(methylamino)-1-phenylhydroquinazolin-2-one]
200 to 500 nM | COc1nc(=O)n(-c2ccccc2)c2cc(C(F)(F)F)ccc12 [Example 144, 4-methoxy-1-phenyl-7-(trifluoromethyl)-hydroquinazolin-2-one]
< 200 nM | O=c1nc(N2CC[C@@H](O)C2)c2ccc(C(F)(F)F)cc2n1-c1ccccc1 [Example 145, 4-((3R)-3-hydroxypyrrolidinyl)-1-phenyl-7-(trifluoromethyl)hydro-quinazolin-2-one]
< 200 nM | Nc1nc(=O)n(-c2ccccc2)c2cc(C(F)(F)F)ccc12 [Example 146, 4-amino-1-phenyl-7-(trifluoromethyl)-hydroquinazolin-2-one]
< 200 nM | Cc1ccccc1-n1c(=O)[nH]c(=O)c2ccc(C(F)(F)F)cc21 [Example 147, 1-(2-methylphenyl)-7-(trifluoromethyl)-1,3-dihydroquinazoline-2,4-dione]
< 200 nM | Nc1nc(=O)n(-c2ccccc2Br)c2cc(Cl)ccc12 [Example 149, 4-amino-1-(2-bromophenyl)-7-chloro-hydroquinazolin-2-one]
< 200 nM | COc1ccccc1-n1c(=O)nc(N2CC[C@@H](O)C2)c2ccc(Cl)cc21 [Example 151, 4-((3R)-3-hydroxypyrrolidin-1-yl)-7-chloro-1-(2-methoxyphenyl)hydro-quinazolin-2-one]

IC50 | SMILES
200 to 500 nM | CNc1nc(=O)n(-c2cccc(C#N)c2)c2cc(Cl)ccc12 [Example 155, 3-[7-chloro-4-(methylamino)-2-oxo-hydroquinazolinyl]benzenecarbonitrile]
1000 to 10000 nM | O=C(O)c1cccc(-n2c(=O)[nH]c(=O)c3ccc(Cl)cc32)c1 [Example 156, 3-(7-chloro-4-hydroxy-2-oxohydro-quinazolinyl)benzoic acid]
< 200 nM | CNc1nc(=O)n(-c2cccc(O)c2C)c2cc(Cl)ccc12 [Example 157, 7-chloro-1-(3-hydroxy-2-methylphenyl)-4-(methylamino)hydroquinazolin-2-one]
< 200 nM | CNc1nc(=O)n(-c2ccccc2)c2cc(CCl)ccc12 [Example 160, 7-(chloromethyl)-4-(methylamino)-1-phenylhydroquinazolin-2-one]
< 200 nM | O=c1nc(N2CC(O)C2)c2ccc(C(F)(F)F)nc2n1-c1ccccc1Cl [Example 161, 1-(2-chlorophenyl)-4-(3-hydroxy-azetidinyl)-7-(trifluoromethyl)pyrido-[2,3-d]pyrimidin-2(1H)-one]
< 200 nM | N#Cc1cccc(-n2c(=O)nc(N3CC(O)C3)c3ccc(C(F)(F)F)nc32)c1 [Example 162, 3-(4-(3-hydroxyazetidin-1-yl)-2-oxo-7-(trifluoromethyl)pyrido[2,3-d]pyrimidin-1(2H)-yl)benzonitrile]
< 200 nM | Nc1nc(=O)n(-c2ccccc2)c2cc(Br)ccc12 [Example 163, 4-amino-7-bromo-1-phenylhydro-quinazolin-2-one]
< 200 nM | O=c1nc(N2CC(O)C2)c2ccc(C(F)(F)F)cc2n1-c1ccccc1 [Example 164]
< 200 nM | Cc1ccccc1-n1c(=O)nc(N2CC(O)C2)c2ccc(C(F)(F)F)nc21 [Example 165]
200 to 500 nM | O=c1[nH]c(=O)n(-c2ccccc2)c2cc(C(F)F)ccc12 [Example 166, 7-(difluoromethyl)-1-phenyl-1,3-dihydroquinazoline-2,4-dione]
< 200 nM | Nc1nc(=O)n(-c2ccccc2Cl)c2nc(C(F)(F)F)ccc12 [Example 167, 4-amino-1-(2-chlorophenyl)-7-(trifluoro-methyl)pyrido[2,3-d]pyrimidin-2(1H)-one]
< 200 nM | N#Cc1cccc(-n2c(=O)nc(N)c3ccc(C(F)(F)F)nc32)c1 [Example 168, 3-(4-amino-2-oxo-7-(trifluoromethyl)-pyrido[2,3-d]pyrimidin-1(2H)-yl)-benzonitrile]
< 200 nM | Cc1ccccc1-n1c(=O)nc(N)c2ccc(C(F)(F)F)nc21 [Example 169, 4-amino-1-(2-methylphenyl)-7-(trifluoromethyl)pyrido[2,3-d]pyrimidin-2(1H)-one]
< 200 nM | O=c1nc(N2CC[C@@H](O)C2)c2ccc(C(F)(F)F)nc2n1-c1ccccc1 [Example 170, (R)-4-(3-hydroxypyrrolidin-1-yl)-1-phenyl-7-(trifluoromethyl)pyrido[2,3-d]-pyrimidin-2(1H)-one]
< 200 nM | O=c1nc(N2CC(O)C2)c2ccc(C(F)(F)F)nc2n1-c1ccccc1 [Example 171, 4-(3-hydroxyazetidin-1-yl)-1-phenyl-7-(trifluoromethyl)pyrido[2,3-d]pyrimidin-2(1H)-one]

SMILES | IC50
CN(C)C(=O)C1CN(c2nc(=O)n(-c3ccccc3)c3cc(Cl)ccc23)C1 [Example 159, [1-(7-chloro-2-oxo-1-phenylhydro-quinazolin-4-yl)azetidin-3-yl]-N,N-dimethylcarboxamide] | < 200 nM

Same assay, conditions: L-methionine 500 uM, ATP 500 uM, numeric bound

IC50 | SMILES
> 10000 nM | CNc1nc(=O)n(-c2ccccc2)c2cc(Cl)cc(OC3CN(C(=O)OC(C)(C)C)C3)c12 [Example 132, tert-butyl 3-[7-chloro-4-(methylamino)-2-oxo-1-phenylhydroquinazolin-5-yl-oxy]azetidinecarboxylate]

Source: US11046691B1 (IDEAYA BIOSCIENCES, INC., priority 2018, dated 2021)
